Data published in PubChem BioAssay AID256 (DTP/NCI, 2004).
Where “and” joins values, the source holds several entries; their conditions need not be identical. Equal entries are not always repeated. Inconclusive results and toxic doses are left out. Residues, ends and D or L forms follow the SMILES beside them. *: point of attachment. Cbz = O=C(OCc1ccccc1)*; Bn = c1ccc(C*)cc1; βAla = NCCC(=O)O

Tested on: CD2F1 mice, L1210 leukemia ip, survival T/C
Experiment: NCI In Vivo Anticancer Drug Screen. Data for tumor model L1210 Leukemia (intraperitoneal) in CD2F1 (CDF1) mice
Conditions: endpoint: mean survival time, higher = longer survival
In short: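 Transplantable tumor in mice; compound-treated vs vehicle-treated groups. Read-out = treated/control ratio of the measured endpoint.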

[1] = dose: 25.0 mg/kg/injection, schedule: Q01DX009 (ip), vehicle: saline with Tween-80
[2] = dose: 50.0 mg/kg/injection, schedule: Q01DX009 (ip), vehicle: saline with Tween-80
[3] = dose: 100.0 mg/kg/injection, schedule: Q04DX003 (ip), vehicle: saline with Tween-80
[4] = dose: 200.0 mg/kg/injection, schedule: Q04DX003 (ip), vehicle: saline with Tween-80
[5] = dose: 100.0 mg/kg/injection, schedule: Q01DX009 (ip), vehicle: saline with Tween-80
[6] = dose: 100.0 mg/kg/injection, schedule: Q01DX001 (ip), vehicle: Klucel (hydroxypropylcellulose) (HPC)
[7] = dose: 200.0 mg/kg/injection, schedule: Q01DX001 (ip), vehicle: Klucel (hydroxypropylcellulose) (HPC)
[8] = dose: 200.0 mg/kg/injection, schedule: Q01DX009 (ip), vehicle: saline with Tween-80
[9] = dose: 400.0 mg/kg/injection, schedule: Q01DX009 (ip), vehicle: saline with Tween-80
[10] = dose: 50.0 mg/kg/injection, schedule: Q01DX009 (ip), vehicle: Klucel (hydroxypropylcellulose) (HPC)
[11] = dose: 100.0 mg/kg/injection, schedule: Q01DX009 (ip), vehicle: Klucel (hydroxypropylcellulose) (HPC)
[12] = dose: 200.0 mg/kg/injection, schedule: Q01DX009 (ip), vehicle: Klucel (hydroxypropylcellulose) (HPC)

What does the source list for `CC1=CC(=O)C(C(C)C)=CC1=O`?
T/C [1]: 101 % of control; T/C [2]: 108 % of control; T/C [3]: 88 % of control

Which results are given for `CC1(C)CCC23CCC4(C)C(CCC5C6(C)CCC(O)C(C)(C)C6CCC54C)C2C1OC3=O` (stereo not given)?
T/C (dose: 6.25 mg/kg/injection, schedule: Q04DX002 (ip), vehicle: saline with Tween-80): 100 % of control; T/C (dose: 12.5 mg/kg/injection, schedule: Q04DX002 (ip), vehicle: saline with Tween-80): 103 % of control; T/C (dose: 25.0 mg/kg/injection, schedule: Q04DX002 (ip), vehicle: saline with Tween-80): 88 % of control and 103 % of control

What does the source list for `O=C(O)c1cc(Cl)[nH]c(=O)c1`?
T/C [3]: 91 % of control; T/C [4]: 91 % of control; T/C (dose: 400.0 mg/kg/injection, schedule: Q04DX003 (ip), vehicle: saline with Tween-80): 91 % of control

With `FC(F)(F)/C([S-])=C(/[S-])C(F)(F)F.[Ni].[c-]1[c-][c-][cH-][c-]1` as the compound, how does the T/C (dose: 9.5 mg/kg/injection, schedule: Q01DX001 (ip), vehicle: other) read?
The T/C was 92 % of control.

What about the T/C (dose: 19.0 mg/kg/injection, schedule: Q01DX001 (ip), vehicle: other) of the same compound?
Its T/C is 93 % of control.

What does the source list for `COC(=O)C1OC1(C)c1ccc(C)cc1` (stereo not given)?
T/C [1]: 89 % of control; T/C [2]: 94 % of control; T/C [5]: 93 % of control

How did the T/C (dose: 100.0 mg/kg/injection, schedule: Q01DX001 (ip), vehicle: DMSO) turn out when `O=P1(N(CCCl)CCCl)OCCC(OO)N1CCCl` (stereo not given) was run?
Its T/C is 268 % of control.

And the T/C [6]?
Its T/C is 281 % of control.

And the T/C [7]?
Its T/C is 309 % of control.

What about the T/C (dose: 400.0 mg/kg/injection, schedule: Q01DX001 (ip), vehicle: DMSO) of the same compound?
The T/C was 163 % of control.

`CCOC(=O)C(C(=O)OCC)C1c2ccccc2C(=O)N(CCN(C)C)c2ccccc21` (stereo not given) was tested. Which T/C (dose: 130.0 mg/kg/injection, schedule: Q01DX001 (ip), vehicle: saline) did it give?
Its T/C is 103 % of control.

What does the source list for `COC(=O)C(CSCc1ccccc1)NC(=O)C(CSCc1ccccc1)NC(=O)CCNC(=O)OCc1ccccc1` (stereo not given) ({Cbz-βAla}-Cys(Bn)-Cys(Bn)-OMe; configuration not given here)?
T/C (dose: 25.0 mg/kg/injection, schedule: Q01DX005 (ip), vehicle: water): 103 % of control; T/C (dose: 50.0 mg/kg/injection, schedule: Q01DX005 (ip), vehicle: water): 98 % of control; T/C (dose: 100.0 mg/kg/injection, schedule: Q01DX005 (ip), vehicle: water): 106 % of control; T/C (dose: 200.0 mg/kg/injection, schedule: Q01DX005 (ip), vehicle: water): 103 % of control; T/C (dose: 400.0 mg/kg/injection, schedule: Q01DX005 (ip), vehicle: water): 105 % of control

Which results are given for `Cc1ccc(NC(=O)/C=C/C(=O)O)cc1C`?
T/C [2]: 95 % of control; T/C [5]: 101 % of control; T/C [8]: 105 % of control

What does the source list for `CC(=O)N(CC(=O)O)c1ccccc1`?
T/C [5]: 98 % of control; T/C [8]: 96 % of control; T/C [9]: 96 % of control

Which T/C (dose: 100.0 mg/kg/injection, schedule: Q04DX002 (ip), vehicle: saline) does the source give for `CC1COC(C(=O)O)(c2ccccc2)O1` (stereo not given) here?
Its T/C is 96 % of control.

What about the T/C (dose: 200.0 mg/kg/injection, schedule: Q04DX002 (ip), vehicle: saline) of the same compound?
Its T/C is 108 % of control.

And the T/C (dose: 400.0 mg/kg/injection, schedule: Q04DX002 (ip), vehicle: saline)?
Its T/C is 100 % of control.

Which T/C (dose: 100.0 mg/kg/injection, schedule: Q01DX001 (ip), vehicle: saline) does the source give for `CCCC(CCC)(C(N)=O)C(=O)O` here?
Its T/C is 97 % of control.

And the T/C (dose: 200.0 mg/kg/injection, schedule: Q01DX001 (ip), vehicle: saline)?
The T/C was 97 % of control.

And the T/C (dose: 400.0 mg/kg/injection, schedule: Q01DX001 (ip), vehicle: saline)?
The T/C was 94 % of control.

For `Cc1ccc(CS(=O)(=O)C(Cl)(Cl)c2ccc(C)cc2)cc1`, which T/C (dose: 100.0 mg/kg/injection, schedule: Q04DX003 (ip), vehicle: Klucel (hydroxypropylcellulose) (HPC)) is on record?
Its T/C is 94 % of control.

What about the T/C (dose: 200.0 mg/kg/injection, schedule: Q04DX003 (ip), vehicle: Klucel (hydroxypropylcellulose) (HPC)) of the same compound?
Its T/C is 100 % of control.

What about the T/C (dose: 400.0 mg/kg/injection, schedule: Q04DX003 (ip), vehicle: Klucel (hydroxypropylcellulose) (HPC)) of the same compound?
The T/C was 94 % of control.

What does the source list for `Cc1cc(CSC(=N)N)c(C)cc1CSC(=N)N`?
T/C (dose: 5.0 mg/kg/injection, schedule: Q01DX009 (ip), vehicle: saline with Tween-80): 92 % of control; T/C (dose: 5.0 mg/kg/injection, schedule: Q04DX003 (ip), vehicle: saline with Tween-80): 106 % of control; T/C (dose: 10.0 mg/kg/injection, schedule: Q01DX009 (ip), vehicle: saline with Tween-80): 101 % of control; T/C (dose: 10.0 mg/kg/injection, schedule: Q04DX003 (ip), vehicle: saline with Tween-80): 106 % of control; T/C (dose: 20.0 mg/kg/injection, schedule: Q01DX009 (ip), vehicle: saline with Tween-80): 95 % of control; T/C (dose: 20.0 mg/kg/injection, schedule: Q04DX003 (ip), vehicle: saline with Tween-80): 101 % of control

`COc1ccc(OC)c(NC(=O)Nc2ccc(S(N)(=O)=O)cc2)c1` was tested. Which T/C [5] did it give?
The T/C was 98 % of control.

What about the T/C [8] of the same compound?
Its T/C is 93 % of control.

And the T/C [9]?
The T/C was 96 % of control.

What does the source list for `CCCCC(CC)CNCCOC(=O)c1ccc([N+](=O)[O-])cc1` (stereo not given)?
T/C (dose: 75.0 mg/kg/injection, schedule: Q01DX001 (ip), vehicle: saline): 97 % of control; T/C (dose: 150.0 mg/kg/injection, schedule: Q01DX001 (ip), vehicle: saline): 100 % of control; T/C (dose: 300.0 mg/kg/injection, schedule: Q01DX001 (ip), vehicle: saline): 102 % of control

How did the T/C (dose: 50.0 mg/kg/injection, schedule: Q01DX001 (ip), vehicle: Klucel (hydroxypropylcellulose) (HPC)) turn out when `CN(C)N(Cc1ccccc1)/N=N/c1nc[nH]c1C(N)=O` was run?
The T/C was 107 % of control.

And the T/C [10]?
The T/C was 105 % of control.

And the T/C [6]?
Its T/C is 98 % of control.

And the T/C [11]?
Its T/C is 96 % of control.

What about the T/C [7] of the same compound?
The T/C was 90 % of control.

What about the T/C [12] of the same compound?
Its T/C is 107 % of control.

With `CC1COCC(C)N1` (stereo not given) as the compound, how does the T/C (dose: 100.0 mg/kg/injection, schedule: Q04DX003 (ip), vehicle: saline) read?
Its T/C is 96 % of control.

What about the T/C (dose: 200.0 mg/kg/injection, schedule: Q04DX003 (ip), vehicle: saline) of the same compound?
Its T/C is 98 % of control.

And the T/C (dose: 400.0 mg/kg/injection, schedule: Q04DX003 (ip), vehicle: saline)?
Its T/C is 96 % of control.

For `Cc1ccc(S(=O)(=O)N/N=C(\C(=O)O)c2ccccc2)cc1`, which T/C (dose: 12.5 mg/kg/injection, schedule: Q01DX009 (ip), vehicle: Klucel (hydroxypropylcellulose) (HPC)) is on record?
Its T/C is 95 % of control.

And the T/C (dose: 25.0 mg/kg/injection, schedule: Q01DX009 (ip), vehicle: Klucel (hydroxypropylcellulose) (HPC))?
The T/C was 96 % of control.

What about the T/C [10] of the same compound?
Its T/C is 96 % of control.

What about the T/C [11] of the same compound?
The T/C was 95 % of control.

And the T/C [12]?
The T/C was 93 % of control.

`Cc1c2ccccc2c(CSCCC(N)C(=O)O)c2ccc3ccccc3c12` (stereo not given) was tested. Which T/C [3] did it give?
Its T/C is 96 % of control.

What about the T/C [4] of the same compound?
Its T/C is 87 % of control.

For `O=C(O)C1(Br)CCC1`, which T/C (dose: 12.5 mg/kg/injection, schedule: Q01DX005 (ip), vehicle: saline with Tween-80) is on record?
Its T/C is 89 % of control.

And the T/C (dose: 12.5 mg/kg/injection, schedule: Q01DX009 (ip), vehicle: saline)?
Its T/C is 100 % of control.

What about the T/C (dose: 25.0 mg/kg/injection, schedule: Q01DX005 (ip), vehicle: saline with Tween-80) of the same compound?
The T/C was 101 % of control.

And the T/C (dose: 25.0 mg/kg/injection, schedule: Q01DX009 (ip), vehicle: saline)?
The T/C was 89 % of control.

What about the T/C (dose: 50.0 mg/kg/injection, schedule: Q01DX005 (ip), vehicle: saline with Tween-80) of the same compound?
Its T/C is 108 % of control.

And the T/C (dose: 50.0 mg/kg/injection, schedule: Q01DX009 (ip), vehicle: saline)?
Its T/C is 93 % of control.

And the T/C (dose: 50.0 mg/kg/injection, schedule: Q04DX002 (ip), vehicle: saline with Tween-80)?
Its T/C is 97 % of control.

What about the T/C (dose: 100.0 mg/kg/injection, schedule: Q01DX005 (ip), vehicle: saline with Tween-80) of the same compound?
The T/C was 97 % of control.

What about the T/C (dose: 100.0 mg/kg/injection, schedule: Q01DX009 (ip), vehicle: saline) of the same compound?
The T/C was 89 % of control.

What about the T/C (dose: 100.0 mg/kg/injection, schedule: Q04DX002 (ip), vehicle: saline with Tween-80) of the same compound?
Its T/C is 94 % of control.

`Cc1[nH]nc(C(F)(F)F)c1N=NN1CCOCC1` was tested. Which T/C (dose: 75.0 mg/kg/injection, schedule: Q01DX001 (ip), vehicle: other) did it give?
Its T/C is 100 % of control.

And the T/C (dose: 150.0 mg/kg/injection, schedule: Q01DX001 (ip), vehicle: other)?
Its T/C is 109 % of control.

What about the T/C (dose: 300.0 mg/kg/injection, schedule: Q01DX001 (ip), vehicle: other) of the same compound?
The T/C was 101 % of control.
